IC50 data for 18 molecules are collected here from US20230092890A1, “1, 3, 4-Oxadiazole derivative compounds as histone deacetylase 6 inhibitor, and the pharmaceutical composition comprising the same” (Chong Kun Dang Pharmaceutical Corp., priority 2019, published 2023).

Assay [1] concerns the target T1, HDAC6 human recombinant (Homo sapiens, UniProt Q9UBN7).
T1 construct: purchased Calbiochem 382180
T1 sequence (Q9UBN7 1-1215): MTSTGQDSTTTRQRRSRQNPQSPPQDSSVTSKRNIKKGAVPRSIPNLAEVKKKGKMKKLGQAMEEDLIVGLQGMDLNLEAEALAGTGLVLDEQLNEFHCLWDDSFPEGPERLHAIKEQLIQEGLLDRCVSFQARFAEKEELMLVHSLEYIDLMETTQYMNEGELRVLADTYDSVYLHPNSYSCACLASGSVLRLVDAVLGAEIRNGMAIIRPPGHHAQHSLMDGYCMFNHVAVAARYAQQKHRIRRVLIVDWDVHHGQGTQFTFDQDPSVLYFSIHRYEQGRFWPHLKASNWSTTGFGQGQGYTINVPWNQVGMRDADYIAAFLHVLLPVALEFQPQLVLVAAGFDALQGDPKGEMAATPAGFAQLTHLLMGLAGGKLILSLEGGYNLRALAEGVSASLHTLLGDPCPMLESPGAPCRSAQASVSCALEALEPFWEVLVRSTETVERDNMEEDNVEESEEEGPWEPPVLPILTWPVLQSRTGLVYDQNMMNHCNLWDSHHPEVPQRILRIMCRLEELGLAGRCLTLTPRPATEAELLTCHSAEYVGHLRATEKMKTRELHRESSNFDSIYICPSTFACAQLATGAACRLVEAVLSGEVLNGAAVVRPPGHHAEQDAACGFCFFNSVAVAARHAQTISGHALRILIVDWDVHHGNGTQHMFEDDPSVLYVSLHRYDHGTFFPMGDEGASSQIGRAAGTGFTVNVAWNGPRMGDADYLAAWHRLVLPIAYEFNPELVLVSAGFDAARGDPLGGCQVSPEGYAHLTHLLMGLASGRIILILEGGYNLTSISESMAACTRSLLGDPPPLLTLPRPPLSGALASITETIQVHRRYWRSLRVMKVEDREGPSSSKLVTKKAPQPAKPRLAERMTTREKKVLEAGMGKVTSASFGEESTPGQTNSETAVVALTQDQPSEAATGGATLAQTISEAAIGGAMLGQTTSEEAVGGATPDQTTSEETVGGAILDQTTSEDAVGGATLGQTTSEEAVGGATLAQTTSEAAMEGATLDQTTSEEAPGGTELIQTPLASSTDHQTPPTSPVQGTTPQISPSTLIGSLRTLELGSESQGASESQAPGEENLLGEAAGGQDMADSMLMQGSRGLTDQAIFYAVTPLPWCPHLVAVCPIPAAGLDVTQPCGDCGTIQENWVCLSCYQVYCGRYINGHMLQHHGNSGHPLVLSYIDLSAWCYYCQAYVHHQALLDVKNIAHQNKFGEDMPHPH
Briefly: HDAC enzyme activity inhibition (in vitro), HDAC6 assay. The class given is biochemical. The following applies: samples at 0.1, 1, 10, 100 and 1000 nM; 37° C. 60 minutes; fluorescence Ex 390, Em 460; read-out: HDAC6 IC50. In short, it runs like this:
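Fluorescence (Ex 390, Em 460) read after a 37° C, 60 min enzyme reaction and a further 30 min developer step at 37° C. Uses recombinant human HDAC6; HDAC1 arm dosed at 100, 1000, 10000 nM.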

Assay [2] concerns the target T2, HDAC1 (Homo sapiens, UniProt Q13547).
T2 construct: purchased Enzolifesciences BML-AK511
The assay can be described thus: HDAC enzyme activity inhibition (in vitro), HDAC1 Fluorimetric Drug Discovery Assay Kit. The class given is biochemical. The following applies: samples at 100, 1000 and 10000 nM; 37° C. 60 minutes; fluorescence Ex 390, Em 460; read-out: HDAC1 IC50. In short, it runs like this:
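Fluorimetric read-out (Ex 390, Em 460) after a 60 min 37° C enzyme reaction and 30 min 37° C developer step. Tested levels: 0.1-1000 nM (0.1, 1, 10, 100, 1000) on recombinant human HDAC6; 100, 1000 and 10000 nM on HDAC1 kit enzyme.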

Molecules are shown by their SMILES.

T2 sequence (Q13547 whole entry): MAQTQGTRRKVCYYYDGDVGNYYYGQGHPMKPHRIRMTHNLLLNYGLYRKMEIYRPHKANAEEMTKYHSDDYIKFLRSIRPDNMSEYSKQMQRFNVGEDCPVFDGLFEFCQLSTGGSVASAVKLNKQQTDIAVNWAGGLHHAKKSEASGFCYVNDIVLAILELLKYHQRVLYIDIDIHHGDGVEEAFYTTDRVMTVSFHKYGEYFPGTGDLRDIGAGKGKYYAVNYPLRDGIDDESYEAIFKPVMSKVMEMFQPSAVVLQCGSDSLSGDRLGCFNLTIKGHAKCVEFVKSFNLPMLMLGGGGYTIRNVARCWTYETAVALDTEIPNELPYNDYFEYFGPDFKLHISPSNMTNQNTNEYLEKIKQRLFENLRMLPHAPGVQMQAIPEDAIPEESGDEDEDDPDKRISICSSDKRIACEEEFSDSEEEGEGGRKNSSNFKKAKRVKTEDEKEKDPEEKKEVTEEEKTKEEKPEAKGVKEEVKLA

For `CS(=O)(=O)N1CCC(n2c(=O)n(Cc3ccc(-c4nnc(C(F)F)o4)cn3)c3ccc(Cl)cc32)CC1` [Compound 200, 5-chloro-1-((5-(5-(difluoromethyl)-1,3,4-oxadiazole-2-yl)pyridine-2-yl)methyl)-3-(1-(methylsulfonyl)piperidine-4-yl)-1,3-dihydro-2H-benzo[d]imidazole-2-one], the values for the IC50 in assay [1] and in assay [2] were 40 nM and more than 10000 nM, respectively.
In the case of `CS(=O)(=O)N1CCC(n2c(=O)n(Cc3ccc(-c4nnc(C(F)F)o4)cc3F)c3ccc(Cl)cc32)CC1` [Compound 201, 5-chloro-1-(4-(5-(difluoromethyl)-1,3,4-oxadiazole-2-yl)-2-fluorobenzyl)-3-(1-(methylsulfonyl)piperidine-4-yl)-1,3-dihydro-2H-benzo[d]imidazole-2-one], the IC50 in assay [1] is 70 nM; in assay [2] it was more than 10000 nM.
For `CS(=O)(=O)N1CCC(n2c(=O)n(Cc3ccc(-c4nnc(C(F)F)o4)cc3)c3ccc(Cl)cc32)CC1` [Compound 202, 5-chloro-1-(4-(5-(difluoromethyl)-1,3,4-oxadiazole-2-yl)benzyl)-3-(1-(methylsulfonyl)piperidine-4-yl)-1,3-dihydro-2H-benzo[d]imidazole-2-one], in that order: 139 nM and more than 10000 nM.
In the case of `CS(=O)(=O)N1CCC(n2c(=O)n(Cc3ccc(-c4nnc(C(F)F)o4)cn3)c3ncccc32)CC1` [Compound 203, 3-((5-(5-(difluoromethyl)-1,3,4-oxadiazole-2-yl)pyridine-2-yl)methyl)-1-(1-(methylsulfonyl)piperidine-4-yl)-1,3-dihydro-2H-imidazo[4,5-b]pyridine-2-one], the IC50 was 105 nM in assay [1] and more than 10000 nM in assay [2].
For `CS(=O)(=O)N1CCC(n2c(=O)n(Cc3ccc(-c4nnc(C(F)F)o4)cc3F)c3ncccc32)CC1` [Compound 204, 3-(4-(5-(difluoromethyl)-1,3,4-oxadiazole-2-yl)-2-fluorobenzyl)-1-(1-(methylsulfonyl)piperidine-4-yl)-1,3-dihydro-2H-imidazo[4,5-b]pyridine-2-one], in that order: 140 nM and more than 10000 nM.
For `CS(=O)(=O)N1CCC(n2c(=O)n(Cc3ccc(-c4nnc(C(F)F)o4)cc3)c3ncccc32)CC1` [Compound 205, 3-(4-(5-(difluoromethyl)-1,3,4-oxadiazole-2-yl)benzyl)-1-(1-(methylsulfonyl)piperidine-4-yl)-1,3-dihydro-2H-imidazo[4,5-b]pyridine-2-one] the same measures were 739 nM and more than 10000 nM.
Take `CS(=O)(=O)N1CCC(n2c(=O)n(Cc3ccc(-c4nnc(C(F)F)o4)cn3)c3ccccc32)CC1` [Compound 206, 1-((5-(5-(difluoromethyl)-1,3,4-oxadiazole-2-yl)pyridine-2-yl)methyl)-3-(1-(methylsulfonyl)piperidine-4-yl)-1,3-dihydro-2H-benzo[d]imidazole-2-one]: the figures for the IC50 in assay [1] and in assay [2] were 58 nM and more than 10000 nM, respectively.
For `CC(C)(C)C(=O)Nc1ccc2c(c1)n(Cc1ccccc1)c(=O)n2Cc1ccc(-c2nnc(C(F)F)o2)cn1` [Compound 207, N-(3-benzyl-1-((5-(5-(difluoromethyl)-1,3,4-oxadiazole-2-yl)pyridine-2-yl)methyl)-2-oxo-2,3-dihydro-1H-benzo[d]imidazole-5-yl)pivalamide], in that order: 173 nM and more than 10000 nM.
For `Cn1c(=O)n(Cc2ccc(-c3nnc(C(F)F)o3)cn2)c2ccc(-c3cccnc3)cc21` [Compound 208, 1-((5-(5-(difluoromethyl)-1,3,4-oxadiazole-2-yl)pyridine-2-yl)methyl)-3-methyl-5-(pyridine-3-yl)-1,3-dihydro-2H-benzo[d]imidazole-2-one] the same measures were 13 nM and more than 10000 nM.
For `Cn1c(=O)n(Cc2ccc(-c3nnc(C(F)F)o3)cn2)c2ccc(-c3ccncc3)cc21` [Compound 209, 1-((5-(5-(difluoromethyl)-1,3,4-oxadiazole-2-yl)pyridine-2-yl)methyl)-3-methyl-5-(pyridine-4-yl)-1,3-dihydro-2H-benzo[d]imidazole-2-one] the same measures were 17 nM and more than 10000 nM.
On to `Cc1noc(C)c1-c1ccc2c(c1)n(C1CCN(C)CC1)c(=O)n2Cc1ccc(-c2nnc(C(F)F)o2)cn1` [Compound 210, 1-((5-(5-(difluoromethyl)-1,3,4-oxadiazole-2-yl)pyridine-2-yl)methyl)-5-(3,5-dimethylisoxazole-4-yl)-3-(1-methylpiperidine-4-yl)-1,3-dihydro-2H-benzo[d]imidazole-2-one], for which the IC50 was 38 nM in assay [1] and more than 10000 nM in assay [2].
For `CN1CCC(n2c(=O)n(Cc3ccc(-c4nnc(C(F)F)o4)cn3)c3ccc(-c4cnoc4)cc32)CC1` [Compound 211, 1-((5-(5-(difluoromethyl)-1,3,4-oxadiazole-2-yl)pyridine-2-yl)methyl)-5-(isoxazole-4-yl)-3-(1-methylpiperidine-4-yl)-1,3-dihydro-2H-benzo[d]imidazole-2-one] the same measures were 48 nM and more than 10000 nM.
As for `Cn1c(=O)n(Cc2ccc(-c3nnc(C(F)F)o3)cn2)c2ccc(-c3cccc4[nH]ccc34)cc21` [Compound 212, 1-((5-(5-(difluoromethyl)-1,3,4-oxadiazole-2-yl)pyridine-2-yl)methyl)-5-(1H-indole-4-yl)-3-methyl-1,3-dihydro-2H-benzo[d]imidazole-2-one], the figures for the IC50 in assay [1] and in assay [2] were 10 nM and more than 10000 nM, respectively.
Regarding `CN1CCC(n2c(=O)n(Cc3ccc(-c4nnc(C(F)F)o4)cn3)c3cc(Cl)ccc32)CC1` [Compound 213, 5-chloro-3-((5-(5-(difluoromethyl)-1,3,4-oxadiazole-2-yl)pyridine-2-yl)methyl)-1-(1-methylpiperidine-4-yl)-1,3-dihydro-2H-benzo[d]imidazole-2-one], the IC50 in assay [1] is 14 nM; in assay [2], more than 10000 nM.
With `CC(C)N1CCC(n2c(=O)n(Cc3ccc(-c4nnc(C(F)F)o4)cn3)c3cc(Cl)ccc32)CC1` [Compound 214, 5-chloro-3-((5-(5-(difluoromethyl)-1,3,4-oxadiazole-2-yl)pyridine-2-yl)methyl)-1-(1-isopropylpiperidine-4-yl)-1,3-dihydro-2H-benzo[d]imidazole-2-one], the IC50 in assay [1] was 15 nM; in assay [2], more than 10000 nM.
For the molecule `CC(=O)N1CCC(n2c(=O)n(Cc3ccc(-c4nnc(C(F)F)o4)cn3)c3cc(Cl)ccc32)CC1` [Compound 215, 1-(1-acetylpiperidine-4-yl)-5-chloro-3-((5-(5-(difluoromethyl)-1,3,4-oxadiazole-2-yl)pyridine-2-yl)methyl)-1,3-dihydro-2H-benzo[d]imidazole-2-one], the IC50 in assay [1] is 20 nM; in assay [2], more than 10000 nM.
`CS(=O)(=O)N1CCC(n2c(=O)n(Cc3ccc(-c4nnc(C(F)F)o4)cn3)c3cc(Cl)ccc32)CC1` [Compound 216, 5-chloro-3-((5-(5-(difluoromethyl)-1,3,4-oxadiazole-2-yl)pyridine-2-yl)methyl)-1-(1-(methylsulfonyl)piperidine-4-yl)-1,3-dihydro-2H-benzo[d]imidazole-2-one]: the IC50 in assay [1] is 18 nM; in assay [2], more than 10000 nM.
For `CN1CCC(n2c(=O)n(Cc3ccc(-c4nnc(C(F)F)o4)cn3)c3cc(F)c(-c4cccc5[nH]ccc45)cc32)CC1` [Compound 217, 1-((5-(5-(difluoromethyl)-1,3,4-oxadiazole-2-yl)pyridine-2-yl)methyl)-6-fluoro-5-(1H-indole-4-yl)-3-(1-methylpiperidine-4-yl)-1,3-dihydro-2H-benzo[d]imidazole-2-one] the same measures were 6 nM and more than 10000 nM.
